Measured values from publication PMC7224568 (PLoS Pathogens, 2020).
“Also recorded” adds a separate entry of the source.

Legend:
soluble P14 TCR (mouse) [1] = assay: ITC
soluble P14 TCR (mouse) [2] = assay: SPR
P14 T cells [3] = assay type: cell-based, mouse
P14 T cells [4] = assay type: cell-based, mouse; remark: listed apart in the source
P14 T cells [5] = assay type: cell-based, mouse; remark: listed apart in the source
H-2D^b (pMHC complex) = assay type: binding, mouse
P14 T cells [6] = assay type: cell-based, mouse; remark: listed apart in the source
soluble TCR P14 [7] = assay type: binding, mouse
P14 T cells [8] = assay type: cell-based, mouse; remark: listed apart in the source
soluble TCR P14 [9] = assay type: binding, mouse; remark: listed apart in the source
TCR P14 = settings: cited from earlier work
T cell clone YF.F3 = settings: cited from earlier work

Row | Substance | TNF and IFNγ production by LCMV-activated P14 T cells (in words) (P14 T cells [4]) | TNF and IFNγ production by P14 T cells (in words) (P14 T cells [5]) | pMHC complex thermal stability (in words) (H-2D^b (pMHC complex)) | Tm (50% protein denaturation), in Fig 1A (H-2D^b (pMHC complex); pH 7.5) | P14 TCR down-regulation / internalization (in words) (P14 T cells [6]) | thermodynamics of P14 binding (in words) (soluble TCR P14 [7]) | CD107a expression (degranulation) of P14 T cells (in words) (P14 T cells [8]) | also measured
1 | H-2D^b/gp33 (from UniProt P01887 21-119) (peptide-MHC) | – | – | – | – | – | – | – | Kd (soluble P14 TCR (mouse) [1]): 5.8 µM; dH (soluble P14 TCR (mouse) [1]): -10.2 kcal/mol; Kd (soluble P14 TCR (mouse) [2]): 8.6 µM
2 | KAPFNFATM [Peptide V3P_Y4F] | produced TNF and IFNγ | – | – | – | – | – | – | tetramer recognition by LCMV-activated P14 T cells (in words) (P14 T cells [3]): a significant amount of the activated P14 T cells recognized the H-2D^b/V3P_Y4F complex
3 | KAPYNFATM [Peptide V3P] | – | induced significant production of TNF and IFNγ | consistent increase in pMHC complex thermal stability | 57.3 °C | equaled or increased TCR internalization compared to gp33 | mainly enthalpy-driven with almost null contribution of entropy; also recorded: the energy required for P14 recognition of V3P is reduced compared to gp33; also recorded: reduced unfavorable entropic contribution | induced significant production of TNF and IFNγ, as well as CD107a expression | Tm (temperature with 50% pMHC denaturation) (H-2D^b (pMHC complex); pH 7.5): 57.3±0.4 C; TΔS (soluble TCR P14 [7]; pH 7.4): -0.5 ± 0.3 kcal/mol; ΔH (soluble TCR P14 [7]; pH 7.4): -8.5 ± 0.5 kcal/mol; P14 TCR binding to pMHC (in words) (soluble TCR P14 [9]): significantly higher binding affinity of soluble P14 TCR to H-2D^b/V3P compared to H-2D^b/gp33
4 | KAVANFATM [Peptide Y4A] | – | – | – | – | – | – | – | agonist class (in words) (TCR P14): semi-agonist
5 | KAVYNFATM [gp33, reference compound] | produced TNF and IFNγ | induced significant production of TNF and IFNγ | equivalent thermal stability | 53.7 °C | induced significant TCR down-regulation | entropically unfavorable | induced significant production of TNF and IFNγ, as well as CD107a expression | IFNγ production by clone YF.F3 (in words) (T cell clone YF.F3): did not produce high amounts IFNγ against gp33; killing of peptide-presenting targets by clone YF.F3 (in words) (T cell clone YF.F3): killed efficiently targets presenting gp33
